Assay results from US9321756B2, “Azole compounds as PIM inhibitors” (priority 2011, dated 2016).
Like-named read-outs stand apart in the source and are kept apart here.

Tests used:
Type in all cases: biochemical
[1] = biological target: full length recombinant Pim-3 (Homo sapiens (Human), UniProt Q86V86); assay: Pim enzyme assay (HTRF, phosphorylation of biotinylated-BAD (S112) peptide), Pim-3; settings: read-out: Pim3 IC50
Excerpt: Pim-3 was purchased from Millipore (UK).
The phosphorylation of biotinylated-BAD (S112) peptide by full length recombinant Pim-1, Pim-2, or Pim-3 protein was detected with streptavidin:Allophycocyanin (APC) conjugate and a europium (Eu) labeled antibody directed against phosphorylated-BAD (S112). […] The fluorescence is directly proportional to the amount of phosphorylated BAD peptide present in the reaction.
A reference compound was included on each assay plate in order to validate that plate; on one plate of every assay run, two additional reference compounds were included.
The final buffer conditions were as follows: 60 mM Hepes, pH 7.0, 0.05% BSA, 2 mM DTT. Incubations were carried out at RT (22° C.) for 2 h for Pim-1, 1 h and 30 min for Pim-3, and 45 min for Pim-2. The reaction was then stopped by the addition of 3 mM EDTA, and fluorescence was measured by an HTRF® Rubystar microplate reader. For each plate, percent of control (POC) values were calculated for each well. Values for the IC50 IP were estimated using a standard 4-parameter logistic model.

[2] = biological target: full length recombinant Pim-2 (Homo sapiens (Human), UniProt Q9P1W9); assay: Pim enzyme assay (HTRF, phosphorylation of biotinylated-BAD (S112) peptide), Pim-2; settings: read-out: Pim2_IC50
[3] = biological target: full length recombinant Pim-1 (Homo sapiens (Human), UniProt P11309); assay: Pim enzyme assay (HTRF, phosphorylation of biotinylated-BAD (S112) peptide), Pim-1; settings: Pim-1 enzyme assay; read-out: Pim_1_IC50
Chain of full length recombinant Pim-1 (P11309 whole entry): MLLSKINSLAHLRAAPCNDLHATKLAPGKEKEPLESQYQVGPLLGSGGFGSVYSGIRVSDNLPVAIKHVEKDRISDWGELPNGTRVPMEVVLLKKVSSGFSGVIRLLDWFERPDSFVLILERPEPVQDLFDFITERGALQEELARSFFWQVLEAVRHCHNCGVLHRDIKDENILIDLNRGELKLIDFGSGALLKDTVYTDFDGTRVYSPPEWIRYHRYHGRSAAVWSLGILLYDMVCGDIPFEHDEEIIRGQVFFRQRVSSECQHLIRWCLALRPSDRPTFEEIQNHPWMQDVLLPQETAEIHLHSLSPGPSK

Chain of full length recombinant Pim-2 (Q9P1W9 whole entry): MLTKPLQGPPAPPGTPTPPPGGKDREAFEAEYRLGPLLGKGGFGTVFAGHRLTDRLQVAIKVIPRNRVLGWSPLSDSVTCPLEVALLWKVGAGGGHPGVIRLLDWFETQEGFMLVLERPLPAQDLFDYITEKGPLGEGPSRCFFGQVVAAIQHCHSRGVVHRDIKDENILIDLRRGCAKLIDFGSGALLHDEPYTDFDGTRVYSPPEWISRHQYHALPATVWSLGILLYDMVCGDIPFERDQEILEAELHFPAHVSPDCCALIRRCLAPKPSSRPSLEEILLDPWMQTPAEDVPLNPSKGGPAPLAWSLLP

| SMILES | IC50 ([1]; Pim-3 enzyme assay) | IC50 [3] | IC50 ([2]; Pim-2 enzyme assay) | IC50 [2] | IC50 [1] |
| --- | --- | --- | --- | --- | --- |
| Nc1ncc(-c2ccc3[nH]cc(-c4cnc5ccccc5c4)c3c2)s1 [Example 20, 5-(3-(quinolin-3-yl)-1H-indol-5-yl)thiazol-2-amine] | 267 nM | 281 nM |  | 2710 nM |  |
| Nc1nnc(-c2ccc3[nH]cc(-c4cnc5ccccc5c4)c3c2)s1 [Example 21, 5-(3-(quinolin-3-yl)-1H-indol-5-yl)-1,3,4-thiadiazol-2-amine] | 179 nM | 178 nM | 1010 nM |  |  |
| CNc1nnc(-c2ccc3[nH]cc(-c4cccc(-c5ccccc5)c4)c3c2)s1 [Example 22, 5-(3-(biphenyl-3-yl)-1H-indol-5-yl)-N-methyl-1,3,4-thiadiazol-2-amine] | 1470 nM | 2800 nM | > 3000 nM |  |  |
| CNc1nnc(-c2ccc3[nH]cc(-c4ccc(F)cc4F)c3c2)s1 [Example 23, 5-(3-(2,4-difluorophenyl)-1H-indol-5-yl)-N-methyl-1,3,4-thiadiazol-2-amine] | 136 nM | 423 nM | 1550 nM |  |  |
| Cc1nnc2n1CCN(c1cccc(-c3c[nH]c4ccc(-c5nnc(N)s5)cc34)n1)C2 [Example 25, 5-(3-(6-(3-methyl-5,6-dihydro-[1,2,4]triazolo[4,3-a]pyrazin-7(8H)-yl)pyridin-2-yl)-1H-indol-5-yl)-1,3,4-thiadiazol-2-amine 2,2,2-trifluoroacetate] | 3.02 nM | 17.5 nM | 88.7 nM |  |  |
| Oc1nnc(-c2ccc3[nH]cc(-c4ccc(F)cc4F)c3c2)s1 [Example 26, 5-(3-(2,4-difluorophenyl)-1H-indol-5-yl)-1,3,4-thiadiazol-2-ol] | 795 nM | 2000 nM | > 3000 nM |  |  |
| Brc1nnc(-c2ccc3[nH]cc(-c4cccc(N5CCOCC5)n4)c3c2)s1 [Example 27, 4-(6-(5-(5-bromo-1,3,4-thiadiazol-2-yl)-1H-indol-3-yl)pyridin-2-yl)morpholine] | 399 nM | 1310 nM | > 3000 nM |  |  |
| COc1ccc(CNc2nnc(-c3ccc4[nH]cc(-c5cncc(C6CC6)n5)c4c3)o2)cc1 [Example 36, 5-(3-(6-Cyclopropylpyrazin-2-yl)-1H-indol-5-yl)-N-(4-methoxybenzyl)-1,3,4-oxadiazol-2-amine 2,2,2-trifluoroacetate] | 11.4 nM | 43 nM | 212 nM |  |  |
| O=c1[nH]nc(-c2ccc3[nH]cc(-c4cncc(C5CC5)n4)c3c2)o1 [Example 38, 5-(3-(6-Cyclopropylpyrazin-2-yl)-1H-indol-5-yl)-1,3,4-oxadiazol-2(3H)-one 2,2,2-trifluoroacetate] |  | 65.5 nM |  | 54.5 nM | 37.7 nM |
| c1cc(-c2nnc(-c3ccc4[nH]cc(-c5cncc(C6CC6)n5)c4c3)o2)[nH]n1 [Example 39, 2-(3-(6-Cyclopropylpyrazin-2-yl)-1H-indol-5-yl)-5-(1H-pyrazol-5-yl)-1,3,4-oxadiazole 2,2,2-trifluoroacetate] |  | 51.4 nM |  | 158 nM | 19.8 nM |
| CC(C)(Nc1nnc(-c2ccc3[nH]cc(-c4cncc(C5CC5)n4)c3c2)o1)c1ccccc1 [Example 50, 5-(3-(6-cyclopropylpyrazin-2-yl)-1H-indol-5-yl)-N-(2-phenylpropan-2-yl)-1,3,4-oxadiazol-2-amine] |  | 57.7 nM | 302 nM |  | 14.4 nM |
| CC(C)(Nc1nnc(-c2ccc3[nH]cc(-c4ncccn4)c3c2)o1)c1ccccc1 [Example 52, N-(2-phenylpropan-2-yl)-5-(3-(pyrimidin-2-yl)-1H-indol-5-yl)-1,3,4-oxadiazol-2-amine 2,2,2-trifluoroacetate] | 40.3 nM | 70.1 nM | 271 nM |  |  |
| CC(C)Oc1cc(F)cc(-c2c[nH]c3ccc(-c4nnc(N)o4)cc23)c1 [Example 79, 5-(3-(3-fluoro-5-(1-methylethoxy)phenyl)-1H-indol-5-yl)-1,3,4-oxadiazol-2-amine] | 85.8 nM | 154 nM | 185 nM |  |  |
| Nc1nnc(-c2ccc3[nH]cc(-c4cnn(CCN5CCOCC5)c4)c3c2)o1 [Example 81, 5-(3-(1-(2-(4-morpholinyl)ethyl)-1H-pyrazol-4-yl)-1H-indol-5-yl)-1,3,4-oxadiazol-2-amine] | 147 nM | 101 nM | 273 nM |  |  |
| Nc1nnc(-c2ccc3[nH]cc(-c4cncc(C(=O)N5CCOCC5)c4)c3c2)o1 [Example 82, 5-(3-(5-(4-morpholinylcarbonyl)-3-pyridinyl)-1H-indol-5-yl)-1,3,4-oxadiazol-2-amine] | 2380 nM | 2350 nM | 1780 nM |  |  |
| Nc1nnc(-c2ccc3[nH]cc(-c4ccccc4F)c3c2)o1 [Example 84, 5-(3-(2-fluorophenyl)-1H-indol-5-yl)-1,3,4-oxadiazol-2-amine] | 26 nM | 92.6 nM | 140 nM |  |  |
| CC(C)Oc1cccc(-c2c[nH]c3ccc(-c4nnc(N)o4)cc23)c1 [Example 85, 5-(3-(3-(1-methylethoxy)phenyl)-1H-indol-5-yl)-1,3,4-oxadiazol-2-amine] | 81.8 nM | 225 nM | 385 nM |  |  |

Now from value to compound, other results behind:

| IC50 ([1]; Pim-3 enzyme assay) | IC50 [3] | IC50 ([2]; Pim-2 enzyme assay) | SMILES | IC50 [2] | IC50 [1] |
| --- | --- | --- | --- | --- | --- |
| 122 nM | 279 nM | 324 nM | CCOc1cnc(-c2c[nH]c3ccc(-c4nnc(N)o4)cc23)cn1 [Example 86, 5-(3-(5-ethoxy-2-pyrazinyl)-1H-indol-5-yl)-1,3,4-oxadiazol-2-amine] |  |  |
| 12.3 nM | 25.9 nM | 46.6 nM | Nc1nnc(-c2ccc3[nH]cc(-c4cncc(Oc5ccccc5)n4)c3c2)o1 [Example 92, 5-(3-(6-phenoxy-2-pyrazinyl)-1H-indol-5-yl)-1,3,4-oxadiazol-2-amine] |  |  |
| 140 nM | 269 nM | 111 nM | Nc1nnc(-c2ccc3[nH]cc(-c4ncccn4)c3c2)o1 [Example 93, 5-(3-(2-pyrimidinyl)-1H-indol-5-yl)-1,3,4-oxadiazol-2-amine] |  |  |
| 12 nM | 67 nM | 31.9 nM | Nc1nnc(-c2ccc3[nH]cc(-c4nccc(C(F)(F)F)n4)c3c2)o1 [Example 96, 5-(3-(4-(trifluoromethyl)-2-pyrimidinyl)-1H-indol-5-yl)-1,3,4-oxadiazol-2-amine] |  |  |
| 29.2 nM | 157 nM | 146 nM | Nc1nnc(-c2ccc3[nH]cc(-c4cncc(Cl)n4)c3c2)o1 [Example 102, 5-(3-(6-chloro-2-pyrazinyl)-1H-indol-5-yl)-1,3,4-oxadiazol-2-amine] |  |  |
| 13 nM | 32.2 nM | 26.8 nM | COC[C@@H]1CCCN1c1ccnc(-c2c[nH]c3ccc(-c4nnc(N)o4)cc23)n1 [Example 109, 5-(3-(4-((2S)-2-(methoxymethyl)-1-pyrrolidinyl)-2-pyrimidinyl)-1H-indol-5-yl)-1,3,4-oxadiazol-2-amine] |  |  |
| 17.2 nM | 27.9 nM | 33.4 nM | Cc1ccccc1-c1ccnc(-c2c[nH]c3ccc(-c4nnc(N)o4)cc23)n1 [Example 124, 5-(3-(4-(2-methylphenyl)-2-pyrimidinyl)-1H-indol-5-yl)-1,3,4-oxadiazol-2-amine] |  |  |
| 84.8 nM | 272 nM | 244 nM | CC(C)Oc1cccc(-c2c[nH]c3ccc(-c4nnc(N)o4)nc23)c1 [Example 126, 5-(3-(3-(1-methylethoxy)phenyl)-1H-pyrrolo[3,2-b]pyridin-5-yl)-1,3,4-oxadiazol-2-amine] |  |  |
| 90.3 nM | 176 nM | 237 nM | Nc1nnc(-c2ccc3[nH]cc(-c4cc(C(=O)Nc5ccccc5)ccc4F)c3c2)s1 [Example 137, 3-(5-(5-amino-1,3,4-thiadiazol-2-yl)-1H-indol-3-yl)-4-fluoro-N-phenylbenzamide] |  |  |
| 96.7 nM | 199 nM | 348 nM | Nc1nnc(-c2ccc3[nH]cc(-c4c(F)cccc4F)c3c2)s1 [Example 138, 5-(3-(2,6-difluorophenyl)-1H-indol-5-yl)-1,3,4-thiadiazol-2-amine] |  |  |
| 59.5 nM | 109 nM | 1480 nM | Fc1ccccc1-c1c[nH]c2ccc(-c3nnc(NCc4ccc5[nH]ccc5c4)s3)cc12 [Example 142, 5-(3-(2-fluorophenyl)-1H-indol-5-yl)-N-(1H-indol-5-ylmethyl)-1,3,4-thiadiazol-2-amine] |  |  |
| 163 nM | 267 nM | 1700 nM | NC1CCN(c2nnc(-c3ccc4[nH]cc(-c5ccccc5F)c4c3)s2)CC1 [Example 144, 1-(5-(3-(2-fluorophenyl)-1H-indol-5-yl)-1,3,4-thiadiazol-2-yl)-4-piperidinamine] |  |  |
| 308 nM | 308 nM | 2170 nM | CC(=O)Nc1cccc(CNc2nnc(-c3ccc4[nH]cc(-c5ccccc5F)c4c3)s2)c1 [Example 145, N-(3-(((5-(3-(2-fluorophenyl)-1H-indol-5-yl)-1,3,4-thiadiazol-2-yl)amino)methyl)phenyl)acetamide] |  |  |
| 540 nM | 365 nM | 2510 nM | COCC(=O)Nc1cccc(CNc2nnc(-c3ccc4[nH]cc(-c5ccccc5F)c4c3)s2)c1 [Example 146, N-(3-(((5-(3-(2-fluorophenyl)-1H-indol-5-yl)-1,3,4-thiadiazol-2-yl)amino)methyl)phenyl)-2-methoxyacetamide] |  |  |
